Source: patent publication US8614209B2, “Amido-thiophene compounds and their use” (The University of Edinburgh, priority 2008, dated 2013)

Each compound was assayed against T1, human 11β-HSD2 (Homo sapiens, UniProt P80365) (assay: Cellular in vitro 11β-HSD2 enzyme inhibition assay (CHO cells, TLC/phosphoimager)). Conditions: CHO cells stably transfected with human 11β-HSD2; Table 1.
T1 construct: CHO cells stably transfected with the full-length gene coding for human 11β-HSD2 were used; expressed in transfected cells; host or cells: CHO
T1 sequence (P80365 1-405): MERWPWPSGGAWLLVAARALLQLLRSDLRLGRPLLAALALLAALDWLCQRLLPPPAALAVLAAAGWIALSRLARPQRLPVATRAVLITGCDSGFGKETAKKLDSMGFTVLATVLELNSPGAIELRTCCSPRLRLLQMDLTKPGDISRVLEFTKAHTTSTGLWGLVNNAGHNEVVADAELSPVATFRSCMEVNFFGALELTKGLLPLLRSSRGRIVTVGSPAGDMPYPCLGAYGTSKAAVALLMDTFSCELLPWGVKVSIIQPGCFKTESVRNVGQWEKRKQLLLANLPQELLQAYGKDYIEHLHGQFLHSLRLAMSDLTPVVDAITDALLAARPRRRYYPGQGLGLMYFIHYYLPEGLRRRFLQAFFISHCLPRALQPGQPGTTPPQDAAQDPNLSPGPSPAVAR
Assay type: cell-based
Procedure: Cellular In Vitro 11β-HSD2 Enzyme Inhibition Assay
For measurement of inhibition of 11β-HSD2, CHO cells stably transfected with the full-length gene coding for human 11β-HSD2 were used. Assays were carried out in 96-well microplates containing 1×10^5 cells/well. Controls and compounds were plated as above, so that the final DMSO concentration in each well was 1%.
The assay solutions were transferred to glass tubes and 20 μL ethyl acetate added to each tube. Each tube was vortexed thoroughly and the upper layer containing the tritiated steroid transferred to a fresh glass tube. The solvent was evaporated by placing the tubes in a heating block at 65° C. under a stream of Nitrogen gas. 20 μL ethanol was added to each of the dried samples and vortexed briefly. Each sample was applied to a silica TLC plate and the plate dried. The plate was placed vertically in a glass tank containing 92% chloroform:8% ethanol and the solvent allowed to rise up the plate. The plate was dried, placed in an imaging cassette, and overlayed with a tritium imaging plate for 1-2 days. The amount of enzyme inhibition in each sample was determined by measuring the intensity of the substrate and product spots using a phosphoimager.
IC50 values for inhibitors were determined as described for 118-HSD1.
With O=C(c1cc(-c2ccccc2)sc1Cl)N1CCCCC1 [AA-30] the IC50 was over 10 µM. CC1(C)CC2CC(C)(CN2C(=O)c2cc(-c3ccccc3)sc2Cl)C1 (centres unmarked) [CC-02] gave an IC50 of over 10 µM. O=C(c1cc(-c2ccccn2)sc1Cl)N1CCCCCC1 [EE-12] showed an IC50 of over 10 µM. For O=C(c1csc(-n2ccnc2)c1)N1CCCC2CCCCC21 (centres unmarked) [FF-06, (5-Imidazol-1-yl-thiophen-3-yl)-(octahydro-quinolin-1-yl)-methanone], the IC50 was over 10 µM. CC1(C)CC2CC(C)(CN2C(=O)c2csc(-c3ccncc3)c2)C1 (centres unmarked) [GG-01] showed an IC50 of over 10 µM.
